# Assays:
# [1] = target: Ribosomal protein S6 kinase alpha-4 (Homo sapiens) (UniProt O75676); test: Selectivity interaction (ActivX KiNativ screen (kinase selectivity in THP-1 cell lysates)) EUB0000639a RPS6KA4; format: subcellular; details: lysate
# [2] = target: Serine/threonine-protein kinase B-raf (Homo sapiens) (UniProt P15056); test: Selectivity interaction (Kinase panel (Invitrogen)) EUB0000639a BRAF; details: at 200 nM
# [3] = target: Cyclin-dependent kinase 7 (Homo sapiens, UniProt P50613); test: Selectivity interaction (ActivX KiNativ screen (kinase selectivity in THP-1 cell lysates)) EUB0000639a CDK7; format: subcellular; details: lysate, at 5 µM
# [4] = target: Serine/threonine-protein kinase 38-like (Homo sapiens) (UniProt Q9Y2H1); test: Selectivity interaction (ActivX KiNativ screen (kinase selectivity in THP-1 cell lysates)) EUB0000639a STK38L; format: subcellular; details: lysate
# [5] = target: Mitogen-activated protein kinase kinase kinase kinase 4 (Homo sapiens, UniProt O95819); test: Selectivity interaction (KinomeScan (DiscoverX)) EUB0000695a MAP4K4; details: at 100 nM
# [6] = target: Proto-oncogene tyrosine-protein kinase receptor Ret (Homo sapiens, UniProt P07949); test: (§1) Selectivity interaction (KinomeScan (DiscoverX)) EUB0000229b RET; details: at 10 µM
# [7] = system: Proto-oncogene tyrosine-protein kinase receptor Ret (Homo sapiens), P07949 [M918T]; test: as §1; details: at 1 µM
# [8] = system: Proto-oncogene tyrosine-protein kinase receptor Ret (Homo sapiens), P07949 [V804M]; test: as §1; details: at 1 µM
# [9] = system: Proto-oncogene tyrosine-protein kinase receptor Ret (Homo sapiens), P07949 [V804L]; test: as §1; details: at 1 µM
# [10] = target: T1, Serine/threonine-protein kinase Nek2 (Homo sapiens) (UniProt P51955); test: Selectivity interaction (KinomeScan (DiscoverX)) EUB0000655a NEK2; details: at 10 µM
# T1 sequence (whole entry): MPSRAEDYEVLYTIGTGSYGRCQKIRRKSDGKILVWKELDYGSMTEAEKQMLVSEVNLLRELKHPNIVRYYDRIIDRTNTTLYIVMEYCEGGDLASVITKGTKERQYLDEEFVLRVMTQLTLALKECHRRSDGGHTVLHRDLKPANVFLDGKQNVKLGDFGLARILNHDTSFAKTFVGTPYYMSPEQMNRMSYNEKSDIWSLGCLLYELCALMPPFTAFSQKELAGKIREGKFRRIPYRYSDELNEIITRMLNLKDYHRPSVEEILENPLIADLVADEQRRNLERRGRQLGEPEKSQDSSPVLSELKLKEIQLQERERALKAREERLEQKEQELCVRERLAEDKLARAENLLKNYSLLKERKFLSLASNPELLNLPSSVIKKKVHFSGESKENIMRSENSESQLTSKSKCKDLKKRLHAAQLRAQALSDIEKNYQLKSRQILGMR
# [11] = target: T2, Inhibitor of nuclear factor kappa-B kinase subunit epsilon (Homo sapiens) (UniProt Q14164); test: Selectivity interaction (KinomeScan (DiscoverX)) EUB0001619a IKBKE; details: at 1 µM
# T2 sequence (whole entry): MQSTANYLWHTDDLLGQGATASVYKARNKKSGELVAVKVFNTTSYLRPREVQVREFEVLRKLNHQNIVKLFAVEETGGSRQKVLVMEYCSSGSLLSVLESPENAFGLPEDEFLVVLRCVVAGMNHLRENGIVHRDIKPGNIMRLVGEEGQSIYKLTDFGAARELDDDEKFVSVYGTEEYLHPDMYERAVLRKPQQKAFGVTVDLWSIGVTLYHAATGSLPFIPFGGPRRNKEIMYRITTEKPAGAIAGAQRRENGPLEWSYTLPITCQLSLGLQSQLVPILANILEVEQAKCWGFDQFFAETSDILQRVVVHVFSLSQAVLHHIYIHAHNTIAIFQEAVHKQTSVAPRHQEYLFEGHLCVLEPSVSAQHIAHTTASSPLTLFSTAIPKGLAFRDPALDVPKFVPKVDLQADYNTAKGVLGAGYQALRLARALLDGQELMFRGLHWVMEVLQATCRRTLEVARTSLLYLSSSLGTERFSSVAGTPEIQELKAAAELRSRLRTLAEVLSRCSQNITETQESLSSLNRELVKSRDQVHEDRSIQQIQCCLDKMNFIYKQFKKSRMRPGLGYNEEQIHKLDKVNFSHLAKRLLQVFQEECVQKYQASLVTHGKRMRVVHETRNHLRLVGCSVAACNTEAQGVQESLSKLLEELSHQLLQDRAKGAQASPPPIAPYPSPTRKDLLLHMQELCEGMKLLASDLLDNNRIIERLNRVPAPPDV
# [12] = target: Cyclin-dependent kinase 4/cyclin D1 (Homo sapiens) (UniProt P11802+P24385); test: (§2) Selectivity interaction (KinomeScan (DiscoverX)) EUB0000618a CDK4; format: protein-complex assay; details: at 10 µM
# [13] = target: CDK4/Cyclin D3 (Homo sapiens) (UniProt P11802+P30281); test: as §2; format: protein-complex assay; details: at 10 µM
# [14] = target: Platelet-derived growth factor receptor beta (Homo sapiens, UniProt P09619); test: Selectivity interaction (KinomeScan (DiscoverX)) EUB0000618a PDGFRB; details: at 10 µM
# [15] = target: T3, Serine/threonine-protein kinase DCLK1 (Homo sapiens) (UniProt O15075); test: Selectivity interaction (KinomeScan (DiscoverX)) EUB0000666a DCLK1; details: at 10 µM
# T3 sequence (whole entry): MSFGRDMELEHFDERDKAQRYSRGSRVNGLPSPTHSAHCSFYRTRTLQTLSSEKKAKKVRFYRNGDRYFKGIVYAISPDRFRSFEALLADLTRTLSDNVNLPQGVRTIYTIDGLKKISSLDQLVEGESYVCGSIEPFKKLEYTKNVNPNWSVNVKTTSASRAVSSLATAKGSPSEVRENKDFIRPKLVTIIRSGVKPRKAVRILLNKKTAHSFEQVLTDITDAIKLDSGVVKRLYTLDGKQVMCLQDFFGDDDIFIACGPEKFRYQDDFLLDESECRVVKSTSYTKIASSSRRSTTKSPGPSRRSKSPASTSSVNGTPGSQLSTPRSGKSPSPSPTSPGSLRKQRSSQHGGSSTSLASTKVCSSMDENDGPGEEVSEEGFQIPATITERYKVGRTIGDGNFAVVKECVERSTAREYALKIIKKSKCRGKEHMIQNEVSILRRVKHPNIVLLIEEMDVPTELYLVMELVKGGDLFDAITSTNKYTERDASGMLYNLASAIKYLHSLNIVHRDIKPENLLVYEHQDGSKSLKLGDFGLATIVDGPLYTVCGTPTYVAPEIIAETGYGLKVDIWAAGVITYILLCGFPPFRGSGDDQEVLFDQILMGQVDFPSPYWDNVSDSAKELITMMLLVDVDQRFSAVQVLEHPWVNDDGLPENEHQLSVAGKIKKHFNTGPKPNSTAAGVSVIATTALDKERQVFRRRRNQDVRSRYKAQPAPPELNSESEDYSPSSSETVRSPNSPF
# Sequence of Serine/threonine-protein kinase 38-like (Homo sapiens) (Q9Y2H1 2-464 limits assumed): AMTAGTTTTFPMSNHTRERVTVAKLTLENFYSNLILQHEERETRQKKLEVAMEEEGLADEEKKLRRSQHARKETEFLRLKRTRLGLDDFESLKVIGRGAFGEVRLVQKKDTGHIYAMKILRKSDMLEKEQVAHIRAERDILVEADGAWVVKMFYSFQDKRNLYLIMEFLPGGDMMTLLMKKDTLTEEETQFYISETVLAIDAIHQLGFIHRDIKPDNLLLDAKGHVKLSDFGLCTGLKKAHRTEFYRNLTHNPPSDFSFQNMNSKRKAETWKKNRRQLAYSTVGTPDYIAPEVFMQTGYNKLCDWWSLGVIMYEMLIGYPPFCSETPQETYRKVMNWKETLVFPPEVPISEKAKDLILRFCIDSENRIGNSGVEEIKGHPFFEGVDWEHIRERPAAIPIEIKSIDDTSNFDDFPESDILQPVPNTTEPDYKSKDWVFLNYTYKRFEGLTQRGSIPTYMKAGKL
# Sequence of Ribosomal protein S6 kinase alpha-4 (Homo sapiens) (O75676 whole entry, looked up): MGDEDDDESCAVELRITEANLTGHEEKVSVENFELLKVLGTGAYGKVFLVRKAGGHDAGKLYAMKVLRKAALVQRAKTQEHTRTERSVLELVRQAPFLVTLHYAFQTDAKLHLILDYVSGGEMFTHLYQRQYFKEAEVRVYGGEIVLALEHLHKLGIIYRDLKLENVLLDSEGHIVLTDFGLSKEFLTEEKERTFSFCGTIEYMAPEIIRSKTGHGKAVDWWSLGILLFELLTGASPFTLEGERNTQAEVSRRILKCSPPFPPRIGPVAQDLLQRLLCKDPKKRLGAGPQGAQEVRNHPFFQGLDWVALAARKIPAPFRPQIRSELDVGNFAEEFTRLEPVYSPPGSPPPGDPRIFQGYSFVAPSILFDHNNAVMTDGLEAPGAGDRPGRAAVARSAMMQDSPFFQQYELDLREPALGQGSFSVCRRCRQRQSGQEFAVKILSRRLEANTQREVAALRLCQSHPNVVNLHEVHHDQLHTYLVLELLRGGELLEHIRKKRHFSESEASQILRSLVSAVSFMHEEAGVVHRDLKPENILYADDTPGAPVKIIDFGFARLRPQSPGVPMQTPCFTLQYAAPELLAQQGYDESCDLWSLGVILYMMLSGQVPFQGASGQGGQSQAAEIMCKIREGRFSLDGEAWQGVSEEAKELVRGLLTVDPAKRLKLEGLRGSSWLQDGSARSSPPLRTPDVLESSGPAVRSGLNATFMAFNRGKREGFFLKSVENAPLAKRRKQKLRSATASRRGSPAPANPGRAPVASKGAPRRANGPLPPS
# Sequence of Proto-oncogene tyrosine-protein kinase receptor Ret (Homo sapiens), P07949 [V804L] (P07949 whole entry V804L): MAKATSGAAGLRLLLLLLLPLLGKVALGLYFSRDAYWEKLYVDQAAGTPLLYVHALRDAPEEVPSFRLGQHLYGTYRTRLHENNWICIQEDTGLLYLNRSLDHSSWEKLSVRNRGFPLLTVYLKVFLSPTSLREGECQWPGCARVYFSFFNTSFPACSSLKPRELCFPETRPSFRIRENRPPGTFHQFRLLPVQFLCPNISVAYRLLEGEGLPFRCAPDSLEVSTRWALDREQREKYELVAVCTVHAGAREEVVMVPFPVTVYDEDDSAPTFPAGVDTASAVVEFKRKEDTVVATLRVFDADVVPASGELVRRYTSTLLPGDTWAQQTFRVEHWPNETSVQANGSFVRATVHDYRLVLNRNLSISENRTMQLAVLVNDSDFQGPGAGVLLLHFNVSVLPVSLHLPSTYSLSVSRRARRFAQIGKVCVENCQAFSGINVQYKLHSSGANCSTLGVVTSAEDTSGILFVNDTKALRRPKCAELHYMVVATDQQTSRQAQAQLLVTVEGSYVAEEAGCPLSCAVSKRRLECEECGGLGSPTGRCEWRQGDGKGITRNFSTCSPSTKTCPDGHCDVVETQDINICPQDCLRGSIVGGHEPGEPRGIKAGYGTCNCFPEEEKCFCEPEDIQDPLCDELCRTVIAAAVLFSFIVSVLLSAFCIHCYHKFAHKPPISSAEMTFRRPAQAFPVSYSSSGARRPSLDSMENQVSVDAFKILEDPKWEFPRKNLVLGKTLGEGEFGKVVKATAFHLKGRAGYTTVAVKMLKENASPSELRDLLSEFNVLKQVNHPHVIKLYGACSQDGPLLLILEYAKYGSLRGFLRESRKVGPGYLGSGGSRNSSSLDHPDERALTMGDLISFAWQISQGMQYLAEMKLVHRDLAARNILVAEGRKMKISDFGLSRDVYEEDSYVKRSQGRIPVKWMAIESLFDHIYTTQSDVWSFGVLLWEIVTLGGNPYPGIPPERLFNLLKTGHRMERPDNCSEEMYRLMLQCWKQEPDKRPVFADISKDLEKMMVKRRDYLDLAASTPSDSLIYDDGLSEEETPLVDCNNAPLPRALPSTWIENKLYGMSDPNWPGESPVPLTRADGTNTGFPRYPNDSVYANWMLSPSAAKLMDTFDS
# Sequence of Cyclin-dependent kinase 7 (P50613 whole entry): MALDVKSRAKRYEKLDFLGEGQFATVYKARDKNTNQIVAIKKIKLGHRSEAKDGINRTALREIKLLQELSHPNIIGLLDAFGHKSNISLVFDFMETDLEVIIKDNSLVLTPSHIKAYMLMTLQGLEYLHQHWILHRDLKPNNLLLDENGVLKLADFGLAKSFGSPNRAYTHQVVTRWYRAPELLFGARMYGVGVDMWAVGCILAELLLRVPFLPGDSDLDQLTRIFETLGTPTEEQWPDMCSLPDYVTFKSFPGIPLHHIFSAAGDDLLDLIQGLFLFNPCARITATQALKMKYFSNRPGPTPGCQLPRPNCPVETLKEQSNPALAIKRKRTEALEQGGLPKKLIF
# Sequence of Proto-oncogene tyrosine-protein kinase receptor Ret (Homo sapiens), P07949 [M918T] (P07949 whole entry M918T): as the sequence (P07949 whole entry V804L) above, with L804V, M918T counted along it
# Sequence of Platelet-derived growth factor receptor beta (P09619 whole entry): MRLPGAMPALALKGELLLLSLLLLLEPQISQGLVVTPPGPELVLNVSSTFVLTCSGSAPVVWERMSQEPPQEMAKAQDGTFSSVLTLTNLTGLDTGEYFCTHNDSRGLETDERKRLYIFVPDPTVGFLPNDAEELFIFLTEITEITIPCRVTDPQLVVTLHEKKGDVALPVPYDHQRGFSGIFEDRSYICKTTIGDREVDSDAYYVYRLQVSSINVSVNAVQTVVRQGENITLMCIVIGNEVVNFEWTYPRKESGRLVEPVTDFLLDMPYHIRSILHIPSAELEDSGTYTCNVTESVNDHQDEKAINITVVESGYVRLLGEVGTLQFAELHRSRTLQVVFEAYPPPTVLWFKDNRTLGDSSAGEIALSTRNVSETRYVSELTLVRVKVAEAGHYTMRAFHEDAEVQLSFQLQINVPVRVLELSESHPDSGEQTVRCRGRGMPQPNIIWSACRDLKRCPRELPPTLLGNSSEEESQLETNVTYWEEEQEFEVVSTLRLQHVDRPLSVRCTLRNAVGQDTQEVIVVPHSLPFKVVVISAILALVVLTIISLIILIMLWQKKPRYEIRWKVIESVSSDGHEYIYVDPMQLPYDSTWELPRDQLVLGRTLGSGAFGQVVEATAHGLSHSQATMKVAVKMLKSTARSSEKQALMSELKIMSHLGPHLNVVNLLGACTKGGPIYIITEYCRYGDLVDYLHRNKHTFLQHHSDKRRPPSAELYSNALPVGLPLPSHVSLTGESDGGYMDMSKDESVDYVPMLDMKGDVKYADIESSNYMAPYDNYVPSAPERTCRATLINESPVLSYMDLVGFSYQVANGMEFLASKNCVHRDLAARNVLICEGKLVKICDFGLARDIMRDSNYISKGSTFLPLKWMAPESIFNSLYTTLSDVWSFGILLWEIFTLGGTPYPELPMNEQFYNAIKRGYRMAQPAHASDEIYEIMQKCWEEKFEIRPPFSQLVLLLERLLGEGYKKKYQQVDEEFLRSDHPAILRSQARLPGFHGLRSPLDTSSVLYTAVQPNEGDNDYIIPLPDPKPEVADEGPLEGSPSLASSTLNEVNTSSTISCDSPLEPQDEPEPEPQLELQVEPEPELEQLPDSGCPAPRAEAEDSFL
# Sequence of Proto-oncogene tyrosine-protein kinase receptor Ret (Homo sapiens), P07949 [V804M] (P07949 whole entry V804M): as the sequence (P07949 whole entry V804L) above, with L804M counted along it
# Sequence of Serine/threonine-protein kinase B-raf (Homo sapiens) (P15056 whole entry): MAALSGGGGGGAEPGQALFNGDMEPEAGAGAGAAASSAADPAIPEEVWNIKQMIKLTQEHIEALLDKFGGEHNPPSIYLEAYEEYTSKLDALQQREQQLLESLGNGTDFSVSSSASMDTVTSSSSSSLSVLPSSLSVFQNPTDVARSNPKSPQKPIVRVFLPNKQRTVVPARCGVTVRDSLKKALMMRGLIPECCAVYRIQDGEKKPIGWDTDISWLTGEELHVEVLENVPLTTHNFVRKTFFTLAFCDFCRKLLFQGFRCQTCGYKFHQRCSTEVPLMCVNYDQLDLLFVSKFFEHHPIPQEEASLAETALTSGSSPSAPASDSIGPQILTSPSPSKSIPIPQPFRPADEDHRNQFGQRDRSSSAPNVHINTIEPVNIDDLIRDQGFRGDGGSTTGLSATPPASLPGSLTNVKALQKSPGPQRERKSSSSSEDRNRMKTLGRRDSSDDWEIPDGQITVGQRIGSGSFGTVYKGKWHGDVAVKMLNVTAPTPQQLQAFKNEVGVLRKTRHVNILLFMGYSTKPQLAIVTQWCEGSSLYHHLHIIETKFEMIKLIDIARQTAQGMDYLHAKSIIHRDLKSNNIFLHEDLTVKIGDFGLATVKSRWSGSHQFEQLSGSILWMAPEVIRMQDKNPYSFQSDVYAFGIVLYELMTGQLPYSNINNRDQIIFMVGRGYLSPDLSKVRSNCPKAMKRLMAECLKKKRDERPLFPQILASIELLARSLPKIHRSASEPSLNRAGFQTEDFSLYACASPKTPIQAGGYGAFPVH
# Sequence of Proto-oncogene tyrosine-protein kinase receptor Ret (P07949 whole entry): as the sequence (P07949 whole entry V804L) above, with L804V counted along it
compound,measurement,setting,value
CC[C@@H]1[C@H](F)C(=O)N[C@@H]1COc1nccc2cc(C(N)=O)c(OC)cc12 [ZIMLOVISERTIB],% of inhibition,[1]; at 0.01 µM,-4.6%
same,% of inhibition,[1]; at 0.04 µM,-2.6%
same,% of inhibition,[1]; at 0.2 µM,-18.1%
same,% of inhibition,[1]; at 1 µM,-20.7%
same,% of inhibition,[1]; at 5 µM,-27.3%
same,% of inhibition,[2],2.21%
same,% of inhibition,[3],44.8%
same,% of inhibition,[4]; at 0.01 µM,5.2%
same,% of inhibition,[4]; at 0.04 µM,-2%
same,% of inhibition,[4]; at 0.2 µM,12%
same,% of inhibition,[4]; at 1 µM,51.5%
same,% of inhibition,[4]; at 5 µM,82.9%
Cc1cc(F)c(C(=O)Nc2cccc(-c3nncn3C(C)C)n2)cc1-n1cnc(C2CC2)c1,% of control,[5],100%
COc1cc(N(C)c2ccnc3ccc(C(F)(F)F)cc23)cc(OC)c1OC,% binding,[6],97%
same,% binding,[7],100%
same,% binding,[8],89%
same,% binding,[9],96%
CN(C)CCOc1ccc(-c2nc(-c3ccncc3)c(-c3ccc4c(c3)CC/C4=N\O)[nH]2)cc1,% of control,[10],100%
N#Cc1cccc(-c2c[nH]c3ncnc(N4CCOCC4)c23)c1,% of control,[11],100%
O[C@H]1CC[C@H](Nc2ncc3nc(Nc4c(F)cc(F)cc4F)n([C@H]4CCOC4)c3n2)CC1,% of control,[12],100%
same,% of control,[13],80%
same,% of control,[14],64%
O=C(NOC[C@H](O)CO)c1ccc(F)c(F)c1Nc1ccc(I)cc1F,% of control,[15],100%
